For seven compounds, viability, T/C and IC50 results are on record in PubChem BioAssay AID2060485 (Molecular Pharmacology Branch, DTP, NCI, 2025).

The subject of this test is A375 multi-cell spheroids with HUVEC/MSC, viability. The test is described as follows: Anticancer human tumor A375 cell line growth inhibition [GQUAD].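 On all read-outs here: spheroids exposed to compounds for seven days before readout.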 The note with it: for viability, T/C: stronger effect = lower value. The text has this:
DNA G-quadruplex Stabilizer Agents in Combinations in Complex Spheroids
A high-throughput screen of multi-cell type tumor spheroids was designed to identify active combinations of DNA G-quadruplex stabilizer agents and targeted small molecules. Complex spheroids include a stromal component modeled by human endothelial cells (HUVEC) and fibroblasts modeled by human mesenchymal stem cells (MSCs). The concentration ranges selected for each drug and investigational agent were based upon clinically achievable concentrations if the clinical Cmax of the agent was known.
Compounds. The drugs and investigational agents: pidnarulex (CX-5461; NSC782164), APTO-253 (NSC789042), BRACO-19 (NSC847499), peposertib (NSC802822), ceralasertib (NSC780249), elimusertib (NSC800525), camonsertib (NSC841442), AZD-1390 (NSC803789), olaparib (NSC753686), talazoparib (NSC767125), ART-558 (NSC835418), sotorasib (NSC818433), MRTX-1133 (NSC836407), SN-38 (NSC673596), topotecan (NSC609699), etoposide (NSC141540), doxorubicin (NSC123127), gemcitabine (NSC613327), 5-fluorouracil (NSC19893), paclitaxel (NSC125973), vemurafenib (NSC761431), panobinostat (NSC761190), R-306465 (JNJ-16241199; NSC773264), adavosertib (NSC754352), TP-3654 (NSC805149), carboplatin (NSC241240), KSQ-4279 (NSC840948), and staurosporine (NSC755774) were obtained from the National Cancer Institute (NCI) Developmental Therapeutics Program Chemical Repository (34). The FDA-approved anticancer drug set is available from the NCI Developmental Therapeutics Program. […] The stock solutions were prepared in dimethyl sulfoxide (DMSO, Sigma-Aldrich, St. Louis, MO, cat. D2650) at 800-fold the tested concentration and stored at -70 degrees C prior to their use. All drugs and investigational agents were tested over a range starting from a high concentration at or near the clinical Cmax and decreasing in half-log increments. If the clinical Cmax for an agent had not been determined, the highest concentration tested was 10 microM.
2.3 Cell Culture. All cells were maintained in an incubator at 37 degrees C and 5% CO2 with 95% humidity. The PDC lines were cultured according to standard operating procedures established by the NCI PDMR. All PDCs were thawed and cultured in Matrigel-coated flasks prepared with a working solution of 1X Ham's F-12 nutrient mix, without supplementation (Invitrogen, cat. 11765054), 100 U/mL penicillin-streptomycin (Invitrogen, cat. 15140122), and 2.5% Matrigel (Corning Inc., cat. 354248) for the first three passages. The 857933-349-R-J2-PDC line was cultured in 6C/Colon 1B media, which includes advanced DMEM/F-12 (Thermo Fisher Scientific, cat. 12634028), 10 mM HEPES (Thermo Fisher Scientific, cat. 15630080), 1X GlutaMAX supplement (Thermo Fisher Scientific, cat. 35050061), 0.1 mg/mL primocin (InvivoGen, cat. ant-pm-2), 10% defined fetal bovine serum, heat inactivated (HyClone Laboratories Inc., cat. SH30070.03HI), 50% L-WRN conditioned media (ATCC, cat. CRL-3276), 1.25 mM N-Acetyl-L-cysteine (Sigma-Aldrich, cat. A9165), 10 mM nicotinamide (Sigma-Aldrich, cat. N0636), 1X B-27 supplement (Thermo Fisher Scientific, cat. 17504044), 1X N-2 supplement (Thermo Fisher Scientific, cat. 17502048), 10 microM Y-27632 dihydrochloride (Tocris Bioscience, cat. 1254), and 50 ng/mL human EGF recombinant protein (Thermo Fisher Scientific, cat. PHG0311). The 485176-168-R4-J1-PDC line was cultured in Panc media, which includes all 6C/Colon 1B media components plus 100 ng/mL human FGF-10 (Thermo Fisher Scientific, cat. 100-26), 500 nM SB-431542 (Selleckchem, cat. S1067), and gastrin (Tocris, cat. 3006).
[…]

Values joined by “and” are separate entries in the source; they are usually repeats but may differ in a detail not shown here. Equal values may be shown once.

For the compound `Nc1ccn(C2OC(CO)C(O)C2(F)F)c(=O)n1` (centres undefined), the viability, T/C reads like this: (compound 0.0316 µM) 17.8% and 12.3% and 18.4%; (compound 0.1 µM) 9.82% and 7.07% and 9.32%; (compound 0.316 µM) 9.4% and 5.69% and 8.76%; (compound 1 µM) 10.4% and 6.8% and 10.7%; (compound 3.16 µM) 11.5% and 7.2% and 10.4%; (compound 10 µM) 9.06% and 6.96% and 7.8%. Also, under “curve of compound”, the IC50 is < 31.6 nM.
Consider `Cc1[nH]c2ccccc2c1CCNCc1ccc(/C=C/C(=O)NO)cc1`, for which the viability, T/C was 103% and 99.2% and 97.9% (compound 0.000999 µM); 98.1% and 105% and 101% (compound 0.00316 µM); 110% and 118% and 113% (compound 0.00999 µM); 114% (2×) and 115% (compound 0.0316 µM); 49.5% and 57.8% and 96% (compound 0.0999 µM); 7.14% and 9% and 10.9% (compound 0.316 µM). The IC50 (curve of compound) was 99.1 nM and 120 nM and 186 nM.
As to `CC(C)(O)C1CCC(Nc2ccc3ncc(-c4cccc(C(F)(F)F)c4)n3n2)CC1` (centres undefined) + Cc1[nH]c2ccc(F)cc2c1-c1nc2c3cccnc3c3ncccc3c2[nH]1, the IC50 runs as follows: (curve of first compound, second compound 0.0316 µM) > 10000 nM; (curve of first compound, second compound 0.1 µM) > 10000 nM; (curve of first compound, second compound 0.316 µM) > 10000 nM; (curve of first compound, second compound 1 µM) > 10000 nM; (curve of first compound, second compound 3.16 µM) 66.7 nM; (curve of first compound, second compound 10 µM) 845 nM. In addition, the viability, T/C (second compound 0.0316 µM, first compound 0.0316 µM) was 99.5%; the viability, T/C (second compound 0.0316 µM, first compound 0.1 µM) is 100%; the viability, T/C (second compound 0.0316 µM, first compound 0.316 µM) was 96.5%; the viability, T/C (second compound 0.0316 µM, first compound 1 µM) was 112%; the viability, T/C (second compound 0.0316 µM, first compound 3.16 µM) was 94.4%; the viability, T/C (second compound 0.0316 µM, first compound 10 µM) is 92.1%. The viability, T/C (second compound 0.1 µM, first compound 0.0316 µM) is 103%; the viability, T/C (second compound 0.1 µM, first compound 0.1 µM) is 110%; the viability, T/C (second compound 0.1 µM, first compound 0.316 µM) is 97.3%; the viability, T/C (second compound 0.1 µM, first compound 1 µM) is 113%; the viability, T/C (second compound 0.1 µM, first compound 3.16 µM) was 84.7%; the viability, T/C (second compound 0.1 µM, first compound 10 µM) was 87.6%. The viability, T/C (second compound 0.316 µM, first compound 0.0316 µM) is 98.5%; the viability, T/C (second compound 0.316 µM, first compound 0.1 µM) is 102%; the viability, T/C (second compound 0.316 µM, first compound 0.316 µM) is 105%; the viability, T/C (second compound 0.316 µM, first compound 1 µM) was 100%; the viability, T/C (second compound 0.316 µM, first compound 3.16 µM) was 77.6%; the viability, T/C (second compound 0.316 µM, first compound 10 µM) is 86.1%. Moreover, the viability, T/C reads like this: (second compound 1 µM, first compound 0.0316 µM) 106%; (second compound 1 µM, first compound 0.1 µM) 104%; (second compound 1 µM, first compound 0.316 µM) 101%; (second compound 1 µM, first compound 1 µM) 93.6%; (second compound 1 µM, first compound 3.16 µM) 47.4%; (second compound 1 µM, first compound 10 µM) 73.7%. Also, the viability, T/C is 49.7% (second compound 3.16 µM, first compound 0.0316 µM); 52.3% (second compound 3.16 µM, first compound 0.1 µM); 39% (second compound 3.16 µM, first compound 0.316 µM); 30.2% (second compound 3.16 µM, first compound 1 µM); 10.4% (second compound 3.16 µM, first compound 3.16 µM); 20.4% (second compound 3.16 µM, first compound 10 µM). For the same compound, the viability, T/C is 76.7% (second compound 10 µM, first compound 0.0316 µM); 82.9% (second compound 10 µM, first compound 0.1 µM); 72.3% (second compound 10 µM, first compound 0.316 µM); 46.9% (second compound 10 µM, first compound 1 µM); 16.2% (second compound 10 µM, first compound 3.16 µM); 42.3% (second compound 10 µM, first compound 10 µM).
For `Cc1cnc(CNC(=O)c2c(=O)c3ccc(N4CCCN(C)CC4)nc3n3c2sc2ccccc23)cn1`, the viability, T/C is, setting by setting: (compound 0.0316 µM) 101% [middle of 11 runs]; (compound 0.1 µM) 82.4% [middle of 11 runs]; (compound 0.316 µM) 57.1% [middle of 11 runs]; (compound 1 µM) 42.3% [middle of 11 runs]; (compound 3.16 µM) 37.6% [middle of 11 runs]; (compound 10 µM) 31.1% [middle of 11 runs]. The half-maximal inhibitory concentration (IC50) (compound alone, run of 03/18/2024) was 582 nM [middle of 11 runs].
With `COc1cc(C2c3cc4c(cc3C(OC3OC5COC(C)OC5C(O)C3O)C3COC(=O)C23)OCO4)cc(OC)c1O` (centres undefined), the viability, T/C is 93.3% and 94.2% and 109% (compound 0.0316 µM); 105% (2×) and 118% (compound 0.1 µM); 93.9% and 92.3% and 76.3% (compound 0.316 µM); 65.6% and 63.6% and 58.4% (compound 1 µM); 34% and 34.8% and 33.6% (compound 3.16 µM); 24.1% and 21.5% and 21.2% (compound 10 µM). For the same compound, where the note is “curve of compound”, the IC50 is 1750 nM and 1690 nM and 1370 nM.
`CC1COCCN1c1cc(C2(O)CC3CCC(C2)O3)c2cnn(-c3ccn[nH]3)c2n1` (centres undefined): the viability, T/C is, setting by setting: (compound 0.0316 µM) 117% and 107% and 101%; (compound 0.1 µM) 73.7% and 86.2% and 65.1%; (compound 0.316 µM) 47.9% and 53.4% and 35.1%; (compound 1 µM) 19.1% and 20.1% and 14.9%; (compound 3.16 µM) 12.1% and 10.6% and 9.5%; (compound 10 µM) 8.52% and 8.96% and 7.33%. In addition, for the setting “curve of compound”, the half-inhibitory concentration (IC50) is 250 nM and 334 nM and 176 nM.
Turning to `CN(C)c1ccc(Nc2c3ccc(NC(=O)CCN4CCCC4)cc3nc3cc(NC(=O)CCN4CCCC4)ccc23)cc1`, the viability, T/C by setting is: (compound 0.0316 µM) 98.8% [middle of 12 runs]; (compound 0.1 µM) 103% [middle of 12 runs]; (compound 0.316 µM) 104% [middle of 12 runs]; (compound 1 µM) 101% [middle of 12 runs]; (compound 3.16 µM) 106% [middle of 12 runs]; (compound 10 µM) 102% [middle of 12 runs]. In addition, the half-maximal inhibitory concentration (IC50) (compound alone, run of 03/26/2024) is > 10000 nM.

One may read the viability, T/C as the result in the treated group divided by that in the control group, in per cent. What is called IC50 is the concentration at which inhibition is half-maximal.
